Measurements as given in ChEMBL document CHEMBL4418308, “cGAS ANTAGONIST COMPOUNDS” (2017).

What follows are compounds tested against Cyclic GMP-AMP synthase (Homo sapiens, UniProt Q8N884) (assay: Inhibition of recombinant His6-SUMO tagged human CGAS expressed in Escherichia coli BL21/pLys cells incubated for 20 mins by Kinase Glo chemiluminescence assay).
Chain of Cyclic GMP-AMP synthase (Q8N884 whole entry): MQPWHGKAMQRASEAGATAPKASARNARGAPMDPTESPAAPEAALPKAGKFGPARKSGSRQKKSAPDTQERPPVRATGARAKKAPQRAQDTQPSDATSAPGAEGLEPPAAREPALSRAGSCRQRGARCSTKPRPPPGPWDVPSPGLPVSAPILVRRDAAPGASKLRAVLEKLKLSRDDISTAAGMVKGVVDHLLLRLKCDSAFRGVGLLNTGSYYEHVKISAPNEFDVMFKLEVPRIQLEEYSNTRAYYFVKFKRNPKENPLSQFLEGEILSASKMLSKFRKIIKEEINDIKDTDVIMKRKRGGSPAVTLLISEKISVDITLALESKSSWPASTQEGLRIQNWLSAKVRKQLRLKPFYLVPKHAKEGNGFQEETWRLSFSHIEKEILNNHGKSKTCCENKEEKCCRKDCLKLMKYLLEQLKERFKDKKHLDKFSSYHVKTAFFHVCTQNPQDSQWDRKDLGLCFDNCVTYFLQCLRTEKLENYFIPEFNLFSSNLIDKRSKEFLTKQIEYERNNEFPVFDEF

SMILES | IC50
COc1cc(/C=C2\Sc3ncccc3C2=O)c(Br)c(Br)c1O | ≥ 10 µM
CC(C)COc1cc(/C=C2\SC(=O)N(C)C2=O)c(Br)cc1O | ≥ 10 µM
CC(Oc1cc(/C=C2\SC(=O)N(C)C2=O)c(Br)cc1O)c1cnc(Cl)nc1 (stereo not given) | ≥ 10 µM
O=C1NC(=O)/C(=C/c2ccncc2C(F)(F)F)S1 | ≥ 10 µM
CN1C(=O)S/C(=C\c2cc(OCc3cnc(C4CCNCC4)nc3)c(O)cc2Br)C1=O | 0.5 to 10 µM
COc1cc(/C=C2\SC(=O)N(C)C2=O)c(Br)cc1Oc1cnc(NCc2ccncc2)s1 | ≥ 10 µM
CC(C)CNc1ncc(COc2cc(/C=C3\SC(=O)N(C)C3=O)c(Br)cc2O)cn1 | ≥ 10 µM
COc1cc(/C=C2\SC(=O)N(C)C2=O)c(F)cc1O | ≥ 10 µM
CN1C(=O)S/C(=C\c2cc(OCc3ccc4ncccc4c3)c(O)cc2Br)C1=O | ≥ 10 µM
COc1cc(/C=C2\Sc3cnccc3C2=O)c(Br)cc1O | ≤ 0.5 µM
CN1C(=O)S/C(=C\c2cc(Oc3cccc(O)c3N)c(O)cc2Br)C1=O | ≥ 10 µM
CN1C(=O)S/C(=C\c2cc(OCc3cnc(N)nc3C3CC3)c(O)c(F)c2Br)C1=O | 0.5 to 10 µM
CN1C(=O)S/C(=C\c2cc(OCc3cc[nH]c(=O)c3)c(O)cc2Br)C1=O | 0.5 to 10 µM
CN1C(=O)S/C(=C\c2cc3nn[nH]c3cc2Br)C1=O | ≥ 10 µM
Nc1ncc(/C=C/c2cc(/C=C3\Sc4ncccc4C3=O)c(Br)cc2O)cn1 | ≤ 0.5 µM
O=C1/C(=C/c2cc(OCc3cnc(NCc4cccnc4)nc3)c(O)cc2Br)Sc2ncccc21 | ≤ 0.5 µM
O=C1NC(=O)/C(=C/c2c[nH]cn2)S1 | ≥ 10 µM
CSc1ccc(CCc2cc(/C=C3\SC(=O)N(C)C3=O)c(Br)cc2O)cc1 | 0.5 to 10 µM
C/N=C1/S/C(=C\c2cc(OC)c(O)cc2Br)C(=O)N1C | ≥ 10 µM
CC(C)c1cc(/C=C2\Sc3ncccc3C2=O)c(Br)cc1O | ≥ 10 µM
Cc1ncc(C(C)Oc2cc(/C=C3\SC(=O)N(C)C3=O)c(Br)cc2O)cn1 (stereo not given) | ≥ 10 µM
CN1C(=O)S/C(=C\c2cc(OCC3CCN(C(=O)c4cccnc4)CC3)c(O)cc2Br)C1=O | 0.5 to 10 µM
O=C1/C(=C/c2ccc(O)cc2Br)Sc2ncccc21 | ≤ 0.5 µM
CN1C(=O)S/C(=C\c2cc(OCc3cncc(NCc4ccccn4)c3)c(O)cc2Br)C1=O | ≥ 10 µM
COc1cc(/C=C2\Sc3ncncc3C2=O)c(Br)cc1O | 0.5 to 10 µM

SMILES | IC50
CC(=O)Nc1nc(S(=O)(=O)Nc2cc(Br)c(/C=C3\SC(=O)N(C)C3=O)cc2OCc2ccccc2)cs1 | 0.5 to 10 µM
COc1cc(/C=C2\SC(=O)N(C)C2=O)c(C(F)(F)F)cc1O | ≥ 10 µM
CN1C(=O)S/C(=C\c2cc(OCc3ccn(-c4ccccc4)c(=O)c3)c(O)cc2Br)C1=O | ≥ 10 µM
CN1C(=O)S/C(=C\c2cc(OCc3cnc(O)nc3)c(O)cc2Br)C1=O | ≥ 10 µM
CC(Cc1cnc(N)nc1)Oc1cc(/C=C2\SC(=O)N(C)C2=O)c(Br)c(F)c1O (stereo not given) | 0.5 to 10 µM
CN1C(=O)S/C(=C\c2cc(Oc3cnc(N)s3)c(O)c(F)c2Br)C1=O | 0.5 to 10 µM
Cc1nc2c(Oc3cc(/C=C4\SC(=O)N(C)C4=O)c(Br)cc3O)cccc2o1 | 0.5 to 10 µM
CC(Oc1cc(/C=C2\Sc3ncccc3C2=O)c(Br)cc1O)c1cnc(Cl)nc1 (stereo not given) | ≤ 0.5 µM
O=C1/C(=C/c2cc(C(F)(F)F)c(O)cc2Br)Sc2ncccc21 | ≤ 0.5 µM
CN1C(=O)S/C(=C\c2cc(OCc3cnc([S+](C)[O-])nc3Cl)c(O)cc2Br)C1=O (stereo not given) | ≥ 10 µM
CN1C(=O)S/C(=C\c2cc(OCc3cnc(Nc4ccccn4)nc3)c(O)cc2Br)C1=O | ≥ 10 µM
CCc1cc(/C=C2\Sc3ncccc3C2=O)c(Br)cc1O | ≤ 0.5 µM
Cc1nc([S+](C)[O-])nc(C)c1COc1cc(/C=C2\SC(=O)N(C)C2=O)c(Br)cc1O (stereo not given) | ≥ 10 µM
CC(Oc1cc(/C=C2\SC(=O)N(C)C2=O)c(Br)c(F)c1O)c1cncnc1 (stereo not given) | ≥ 10 µM
CN1C(=O)S/C(=C\c2cc(OCc3ccc(NC(=O)c4ccncc4)nc3)c(O)cc2Br)C1=O | ≤ 0.5 µM
COc1cc(/C=C2\SC(=O)N(C)C2=O)c(Br)cc1NS(C)(=O)=O | ≥ 10 µM
CC(C)CNc1cncc(COc2cc(/C=C3\SC(=O)N(C)C3=O)c(Br)cc2O)c1 | ≥ 10 µM
COc1cc(/C=c2\sc3n(c2=O)CCN=3)c(Cl)cc1O | ≥ 10 µM
COc1cc(/C=C2\SC(=O)N(C)C2=O)c(Br)cc1NS(=O)(=O)c1ccc(C)cc1 | ≥ 10 µM
Nc1ncc(COc2cc(/C=C3\Sc4ncccc4C3=O)c(Br)cc2O)c(C(F)(F)F)n1 | ≤ 0.5 µM
C#Cc1cc(O)c(OC)cc1/C=C1\SC(=O)N(C)C1=O | ≥ 10 µM
CSc1ncc(COc2cc(/C=C3\SC(=O)N(C)C3=O)c(Br)cc2O)cn1 | ≥ 10 µM
CN1C(=O)S/C(=C\c2cc(OCCc3cnc(N)nc3N)c(O)c(F)c2Br)C1=O | ≤ 0.5 µM
CN1C(=O)S/C(=C\c2cc(OCc3cnc(N4CCOCC4)nc3)c(O)cc2Br)C1=O | ≥ 10 µM
CSc1cc(/C=C2\SC(=O)N(C)C2=O)c(Br)cc1O | 0.5 to 10 µM
